{
  "source": "ChEMBL document CHEMBL4304757",
  "about": "“Synthetic heterocyclic candidates as promising α-glucosidase inhibitors: An overview” (Eur J Med Chem, 2019)",
  "key": {"[1]": {"test": "Inhibition of yeast alpha-glucosidase", "design": "species or system Saccharomyces cerevisiae"}, "[2]": {"target": "T1, Alpha glucosidase (Homo sapiens, UniProt O43451+P10253+P14410+Q2M2H8)", "test": "Inhibition of alpha-glucosidase (unknown origin) using pNPG as substrate preincubated for 10 mins followed by substrate addition measured after 30 mins", "format": "protein assay"}, "[3]": {"target": "T1, Alpha glucosidase", "test": "Inhibition of alpha-glucosidase (unknown origin) using p-nitro phenyl glucopyranoside as substrate preincubated for 5 mins followed by substrate addition measured after 30 mins", "format": "protein assay"}, "[4]": {"target": "T1, Alpha glucosidase", "test": "Inhibition of alpha-glucosidase (unknown origin) using p-nitrophenyl-alpha-d-glucopyranoside as substrate preincubated for 5 mins followed by substrate addition measured after 30 mins", "format": "protein assay"}},
  "data": [
    {"smiles": "O=c1cc(-c2cccc(OCc3ccccc3)c2)oc2ccccc12", "values": [
      {"measurement": "IC50", "setting": "[1]", "result": "1200 to 88000", "unit": "nM"}
    ]},
    {"smiles": "O=C(N/N=C/c1c(O)cc(O)cc1O)c1cc2ccccc2[nH]1", "values": [
      {"measurement": "IC50", "setting": "[2]", "result": "2300 to 226000", "unit": "nM"}
    ]},
    {"smiles": "O=c1oc2ccccc2cc1-c1nn(C(Nc2ccc(Oc3ccc(NC(c4ccc(Cl)cc4Cl)n4nc(-c5cc6ccccc6oc5=O)oc4=S)cc3)cc2)c2ccc(Cl)cc2Cl)c(=S)o1", "note": "(stereo not drawn)", "values": [
      {"measurement": "IC50", "setting": "[3]", "result": "70 to 760", "unit": "nM"}
    ]},
    {"smiles": "COc1ccc(/C=N/NC(=O)c2cc3ccccc3[nH]2)cc1O", "values": [
      {"measurement": "IC50", "setting": "[2]", "result": "2300 to 226000", "unit": "nM"}
    ]},
    {"smiles": "CC(=O)Nc1ccc(-n2c(-c3c(-c4ccccc4)[nH]c4ccc(F)cc34)nc(-c3ccccc3)c2-c2ccccc2)cc1", "values": [
      {"measurement": "IC50", "setting": "[2]", "result": 8300, "unit": "nM"}
    ]},
    {"smiles": "O=c1cc(-c2nn(C(Nc3ccc(-c4ccc(NC(c5cccc(Br)c5)n5nc(-c6cc7ccccc7oc6=O)oc5=S)cc4)cc3)c3cccc(Br)c3)c(=S)o2)c2ccccc2o1", "note": "(stereo not drawn)", "values": [
      {"measurement": "IC50", "setting": "[3]", "result": "70 to 760", "unit": "nM"}
    ]},
    {"smiles": "Fc1ccc2[nH]c(-c3ccccc3)c(-c3nc(-c4ccccc4)c(-c4ccccc4)n3-c3cccc(Cl)c3)c2c1", "values": [
      {"measurement": "IC50", "setting": "[2]", "result": "8300 to 98000", "unit": "nM"}
    ]},
    {"smiles": "N#Cc1ccc(COc2cccc(-c3cc(=O)c4ccccc4o3)c2)cc1", "values": [
      {"measurement": "IC50", "setting": "[1]", "result": "1200 to 88000", "unit": "nM"}
    ]},
    {"smiles": "Fc1ccc2[nH]c(-c3ccccc3)c(-c3nc(-c4ccccc4)c(-c4ccccc4)n3-c3ccccc3)c2c1", "values": [
      {"measurement": "IC50", "setting": "[2]", "result": "8300 to 98000", "unit": "nM"}
    ]},
    {"smiles": "O=c1cc(-c2nn(C(Nc3ccc(-c4ccc(NC(c5ccc(Cl)cc5Cl)n5nc(-c6cc7ccccc7oc6=O)oc5=S)cc4)cc3)c3ccc(Cl)cc3Cl)c(=S)o2)c2ccccc2o1", "note": "(stereo not drawn)", "values": [
      {"measurement": "IC50", "setting": "[3]", "result": "70 to 760", "unit": "nM"}
    ]},
    {"smiles": "COc1ccc(O)c(/C=N/NC(=O)c2cc3ccccc3[nH]2)c1", "values": [
      {"measurement": "IC50", "setting": "[2]", "result": "2300 to 226000", "unit": "nM"}
    ]},
    {"smiles": "O=C(N/N=C/c1ccc(Br)c(F)c1)c1cc2ccccc2[nH]1", "values": [
      {"measurement": "IC50", "setting": "[2]", "result": "2300 to 226000", "unit": "nM"}
    ]},
    {"smiles": "Cc1cc2c(c(=O)[nH]1)C(=O)O/C2=C\\c1ccccc1", "values": [
      {"measurement": "IC50", "setting": "[1]", "result": "1000 to 53000", "unit": "nM"}
    ]},
    {"smiles": "Cc1cc2c(c(=O)[nH]1)C(=O)O/C2=C\\c1cccc(Br)c1", "values": [
      {"measurement": "IC50", "setting": "[1]", "result": "1000 to 53000", "unit": "nM"}
    ]},
    {"smiles": "Cc1cc2c(c(=O)[nH]1)C(=O)O/C2=C\\c1cccs1", "values": [
      {"measurement": "IC50", "setting": "[1]", "result": "240 to 10000", "unit": "nM"}
    ]},
    {"smiles": "O=c1oc2ccccc2cc1-c1nn(C(Nc2ccc(Oc3ccc(NC(c4ccc(Cl)cc4)n4nc(-c5cc6ccccc6oc5=O)oc4=S)cc3)cc2)c2ccc(Cl)cc2)c(=S)o1", "note": "(stereo not drawn)", "values": [
      {"measurement": "IC50", "setting": "[3]", "result": "70 to 760", "unit": "nM"}
    ]},
    {"smiles": "Cc1cc2c(c(=O)[nH]1)C(=O)O/C2=C\\c1ccc(O)c(O)c1", "values": [
      {"measurement": "IC50", "setting": "[1]", "result": "1000 to 53000", "unit": "nM"}
    ]},
    {"smiles": "O=c1cc(-c2cccc(OCc3cccc(SC(F)(F)F)c3)c2)oc2ccccc12", "values": [
      {"measurement": "IC50", "setting": "[1]", "result": "1200 to 88000", "unit": "nM"}
    ]},
    {"smiles": "COc1ccc(COc2cccc(-c3cc(=O)c4ccccc4o3)c2)cc1", "values": [
      {"measurement": "IC50", "setting": "[1]", "result": "1200 to 88000", "unit": "nM"}
    ]},
    {"smiles": "Cc1cs/c(=N\\C(=O)c2ccccc2Cl)n1-c1cc(Cl)c(Cl)cc1Cl", "values": [
      {"measurement": "IC50", "setting": "[4]", "result": "100 to 150", "unit": "nM"}
    ]},
    {"smiles": "Cc1ccc(C(Nc2ccc(-c3ccc(NC(c4ccc(C)cc4)n4nc(-c5cc(=O)oc6ccccc56)oc4=S)cc3)cc2)n2nc(-c3cc4ccccc4oc3=O)oc2=S)cc1", "note": "(stereo not drawn)", "values": [
      {"measurement": "IC50", "setting": "[3]", "result": "70 to 760", "unit": "nM"}
    ]},
    {"smiles": "O=C(N/N=C/c1cccc(O)c1O)c1cc2ccccc2[nH]1", "values": [
      {"measurement": "IC50", "setting": "[2]", "result": "2300 to 226000", "unit": "nM"}
    ]},
    {"smiles": "COc1ccc(C(=O)/N=c2\\scc(C)n2-c2cc(Cl)c(Cl)cc2Cl)cc1", "values": [
      {"measurement": "IC50", "setting": "[4]", "result": "100 to 150", "unit": "nM"}
    ]},
    {"smiles": "O=c1cc(-c2cccc(OCc3cc(C(F)(F)F)ccc3C(F)(F)F)c2)oc2ccccc12", "values": [
      {"measurement": "IC50", "setting": "[1]", "result": 1200, "unit": "nM"}
    ]},
    {"smiles": "Cc1cccc(C(=O)/N=c2\\scc(C)n2-c2cc(Cl)c(Cl)cc2Cl)c1", "values": [
      {"measurement": "IC50", "setting": "[4]", "result": "100 to 150", "unit": "nM"}
    ]},
    {"smiles": "O=c1cc(-c2nn(C(Nc3ccc(NC(c4cccc(Cl)c4)n4nc(-c5cc6ccccc6oc5=O)oc4=S)cc3)c3cccc(Cl)c3)c(=S)o2)c2ccccc2o1", "note": "(stereo not drawn)", "values": [
      {"measurement": "IC50", "setting": "[3]", "result": "70 to 760", "unit": "nM"}
    ]},
    {"smiles": "Cc1ccc(C(Nc2ccc(Oc3ccc(NC(c4ccc(C)cc4)n4nc(-c5cc6ccccc6oc5=O)oc4=S)cc3)cc2)n2nc(-c3cc4ccccc4oc3=O)oc2=S)cc1", "note": "(stereo not drawn)", "values": [
      {"measurement": "IC50", "setting": "[3]", "result": "70 to 760", "unit": "nM"}
    ]},
    {"smiles": "O=C(N/N=C/c1cc(O)ccc1O)c1cc2ccccc2[nH]1", "values": [
      {"measurement": "IC50", "setting": "[2]", "result": "2300 to 226000", "unit": "nM"}
    ]},
    {"smiles": "Cc1cccc(COc2cccc(-c3cc(=O)c4ccccc4o3)c2)c1", "values": [
      {"measurement": "IC50", "setting": "[1]", "result": "1200 to 88000", "unit": "nM"}
    ]},
    {"smiles": "O=C(N/N=C/c1cc(O)c(O)c(O)c1)c1cc2ccccc2[nH]1", "values": [
      {"measurement": "IC50", "setting": "[2]", "result": 2300, "unit": "nM"}
    ]},
    {"smiles": "O=c1oc2ccccc2cc1-c1nn(C(Nc2ccc(Oc3ccc(NC(c4ccc([N+](=O)[O-])cc4)n4nc(-c5cc6ccccc6oc5=O)oc4=S)cc3)cc2)c2ccc([N+](=O)[O-])cc2)c(=S)o1", "note": "(stereo not drawn)", "values": [
      {"measurement": "IC50", "setting": "[3]", "result": "70 to 760", "unit": "nM"}
    ]},
    {"smiles": "O=c1cc(-c2cccc(OCc3cccc(F)c3F)c2)oc2ccccc12", "values": [
      {"measurement": "IC50", "setting": "[1]", "result": 3400, "unit": "nM"}
    ]},
    {"smiles": "CN(C)c1ccc(C(Nc2ccc(NC(c3ccc(N(C)C)cc3)n3nc(-c4cc(=O)oc5ccccc45)oc3=S)cc2)n2nc(-c3cc4ccccc4oc3=O)oc2=S)cc1", "note": "(stereo not drawn)", "values": [
      {"measurement": "IC50", "setting": "[3]", "result": "70 to 760", "unit": "nM"}
    ]},
    {"smiles": "O=c1cc(-c2nn(C(Nc3ccc(-c4ccc(NC(c5ccc(Br)cc5)n5nc(-c6cc7ccccc7oc6=O)oc5=S)cc4)cc3)c3ccc(Br)cc3)c(=S)o2)c2ccccc2o1", "note": "(stereo not drawn)", "values": [
      {"measurement": "IC50", "setting": "[3]", "result": "70 to 760", "unit": "nM"}
    ]},
    {"smiles": "COc1ccc(-c2csc(/C=C3\\OC(=O)c4c3cc(C)[nH]c4=O)c2)cn1", "values": [
      {"measurement": "IC50", "setting": "[1]", "result": "8300 to 86000", "unit": "nM"}
    ]},
    {"smiles": "O=c1cc(-c2nn(C(Nc3ccc(NC(c4ccc(F)cc4)n4nc(-c5cc6ccccc6oc5=O)oc4=S)cc3)c3ccc(F)cc3)c(=S)o2)c2ccccc2o1", "note": "(stereo not drawn)", "values": [
      {"measurement": "IC50", "setting": "[3]", "result": "70 to 760", "unit": "nM"}
    ]},
    {"smiles": "O=c1cc(-c2nn(C(Nc3ccc(NC(c4ccc(Cl)cc4)n4nc(-c5cc6ccccc6oc5=O)oc4=S)cc3)c3ccc(Cl)cc3)c(=S)o2)c2ccccc2o1", "note": "(stereo not drawn)", "values": [
      {"measurement": "IC50", "setting": "[3]", "result": "70 to 760", "unit": "nM"}
    ]},
    {"smiles": "O=c1cc(-c2nn(C(Nc3ccc(NC(c4ccc([N+](=O)[O-])cc4)n4nc(-c5cc6ccccc6oc5=O)oc4=S)cc3)c3ccc([N+](=O)[O-])cc3)c(=S)o2)c2ccccc2o1", "note": "(stereo not drawn)", "values": [
      {"measurement": "IC50", "setting": "[3]", "result": "70 to 760", "unit": "nM"}
    ]}
  ]
}
